# Measured values published in the supplement of paper PMC10307832.
# Experiments:
# Test in all cases: relative viability (nuclei count vs DMSO), 5 days (fraction); higher = more cells survive
# Avagacestat = compound: NC(=O)[C@@H](CCC(F)(F)F)N(Cc1ccc(-c2ncon2)cc1F)S(=O)(=O)c1ccc(Cl)cc1 [Avagacestat]
# In short: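 Five library-drug doses, separated by factors of √10, were pinned into 1536-well plates holding lung cancer cell lines after an overnight stay at 37 °C. Cells were fixed, permeabilised and Hoechst-stained in one step after 5 days without medium change, then imaged at 4×. Viability compares treated-well with vehicle-well nuclei, counted in MetaXpress, as a median across plates. Passing plates had control CV below 25% and at least one doubling.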
# Avagacestat + Navitoclax = compound: NC(=O)[C@@H](CCC(F)(F)F)N(Cc1ccc(-c2ncon2)cc1F)S(=O)(=O)c1ccc(Cl)cc1 [Avagacestat] + CC1(C)CCC(c2ccc(Cl)cc2)=C(CN2CCN(c3ccc(C(=O)NS(=O)(=O)c4ccc(N[C@H](CCN5CCOCC5)CSc5ccccc5)c(S(=O)(=O)C(F)(F)F)c4)cc3)CC2)C1 [Navitoclax] (partner 0.5 µM)
# In short: (§1)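 Relative viability was taken as the ratio of nuclei in treated wells to nuclei in vehicle wells. Lung cancer cell lines in 1536-well plates received compounds by pin tool one day after seeding, either one drug alone or a fixed anchor-drug dose plus five library-drug doses (not always all listed) in √10 steps. Nuclei were counted on 4× images after 5 days of treatment, and values are medians of duplicate plates.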
# Avagacestat + Foretinib = compound: NC(=O)[C@@H](CCC(F)(F)F)N(Cc1ccc(-c2ncon2)cc1F)S(=O)(=O)c1ccc(Cl)cc1 [Avagacestat] + COc1cc2c(Oc3ccc(NC(=O)C4(C(=O)Nc5ccc(F)cc5)CC4)cc3F)ccnc2cc1OCCCN1CCOCC1 [Foretinib] (partner 0.25 µM)
# In short: as §1
# Avagacestat + Lapatinib = compound: NC(=O)[C@@H](CCC(F)(F)F)N(Cc1ccc(-c2ncon2)cc1F)S(=O)(=O)c1ccc(Cl)cc1 [Avagacestat] + CS(=O)(=O)CCNCc1ccc(-c2ccc3ncnc(Nc4ccc(OCc5cccc(F)c5)c(Cl)c4)c3c2)o1 [Lapatinib] (partner 2 µM)
# In short: as §1
# Avagacestat + Pictilisib = compound: NC(=O)[C@@H](CCC(F)(F)F)N(Cc1ccc(-c2ncon2)cc1F)S(=O)(=O)c1ccc(Cl)cc1 [Avagacestat] + CS(=O)(=O)N1CCN(Cc2cc3nc(-c4cccc5[nH]ncc45)nc(N4CCOCC4)c3s2)CC1 [Pictilisib] (partner 1 µM)
# In short: as §1
# Avagacestat + Crizotinib = compound: NC(=O)[C@@H](CCC(F)(F)F)N(Cc1ccc(-c2ncon2)cc1F)S(=O)(=O)c1ccc(Cl)cc1 [Avagacestat] + C[C@@H](Oc1cc(-c2cnn(C3CCNCC3)c2)cnc1N)c1c(Cl)ccc(F)c1Cl [Crizotinib] (partner 1 µM)
# In short: as §1
# Avagacestat + Linsitinib = compound: NC(=O)[C@@H](CCC(F)(F)F)N(Cc1ccc(-c2ncon2)cc1F)S(=O)(=O)c1ccc(Cl)cc1 [Avagacestat] + C[C@]1(O)C[C@@H](c2nc(-c3ccc4ccc(-c5ccccc5)nc4c3)c3c(N)nccn32)C1 [Linsitinib] (partner 1 µM)
# In short: as §1
# Avagacestat + Alpelisib = compound: NC(=O)[C@@H](CCC(F)(F)F)N(Cc1ccc(-c2ncon2)cc1F)S(=O)(=O)c1ccc(Cl)cc1 [Avagacestat] + Cc1nc(NC(=O)N2CCC[C@H]2C(N)=O)sc1-c1ccnc(C(C)(C)C(F)(F)F)c1 [Alpelisib] (partner 2 µM)
# In short: as §1
# Avagacestat + Phenformin = compound: NC(=O)[C@@H](CCC(F)(F)F)N(Cc1ccc(-c2ncon2)cc1F)S(=O)(=O)c1ccc(Cl)cc1 [Avagacestat] + N=C(N)NC(=N)NCCc1ccccc1 [Phenformin] (partner 250 µM)
# In short: as §1
# Avagacestat + Decitabine = compound: NC(=O)[C@@H](CCC(F)(F)F)N(Cc1ccc(-c2ncon2)cc1F)S(=O)(=O)c1ccc(Cl)cc1 [Avagacestat] + Nc1ncn([C@H]2C[C@H](O)[C@@H](CO)O2)c(=O)n1 [Decitabine] (partner 2 µM)
# In short: as §1
# Avagacestat + Olaparib = compound: NC(=O)[C@@H](CCC(F)(F)F)N(Cc1ccc(-c2ncon2)cc1F)S(=O)(=O)c1ccc(Cl)cc1 [Avagacestat] + O=C(c1cc(Cc2n[nH]c(=O)c3ccccc23)ccc1F)N1CCN(C(=O)C2CC2)CC1 [Olaparib] (partner 8 µM)
# In short: as §1
# Avagacestat + Bortezomib = compound: NC(=O)[C@@H](CCC(F)(F)F)N(Cc1ccc(-c2ncon2)cc1F)S(=O)(=O)c1ccc(Cl)cc1 [Avagacestat] + CC(C)C[C@H](NC(=O)[C@H](Cc1ccccc1)NC(=O)c1cnccn1)B(O)O [Bortezomib] (partner 0.002 µM)
# In short: as §1
# Avagacestat + Vorinostat = compound: NC(=O)[C@@H](CCC(F)(F)F)N(Cc1ccc(-c2ncon2)cc1F)S(=O)(=O)c1ccc(Cl)cc1 [Avagacestat] + O=C(CCCCCCC(=O)Nc1ccccc1)NO [Vorinostat] (partner 1 µM)
# In short: as §1
cell line,measurement,setting,value
A549,relative viability,Avagacestat; 0.08 µM,1.1
same,relative viability,Avagacestat; 0.253 µM,1.37
same,relative viability,Avagacestat; 0.8 µM,1.15
same,relative viability,Avagacestat; 2.53 µM,1.03
same,relative viability,Avagacestat; 8 µM,0.993
same,relative viability,Avagacestat + Navitoclax; first compound 0.08 µM,1.64
same,relative viability,Avagacestat + Navitoclax; first compound 0.253 µM,1.65
same,relative viability,Avagacestat + Navitoclax; first compound 0.8 µM,1.27
same,relative viability,Avagacestat + Navitoclax; first compound 2.53 µM,1.26
same,relative viability,Avagacestat + Navitoclax; first compound 8 µM,1.25
same,relative viability,Avagacestat + Foretinib; first compound 0.08 µM,1.01
same,relative viability,Avagacestat + Foretinib; first compound 0.253 µM,1.15
same,relative viability,Avagacestat + Foretinib; first compound 0.8 µM,1.01
same,relative viability,Avagacestat + Foretinib; first compound 2.53 µM,1.01
same,relative viability,Avagacestat + Foretinib; first compound 8 µM,0.878
same,relative viability,Avagacestat + Lapatinib; first compound 0.08 µM,1.58
same,relative viability,Avagacestat + Lapatinib; first compound 0.253 µM,0.977
same,relative viability,Avagacestat + Lapatinib; first compound 0.8 µM,1.09
same,relative viability,Avagacestat + Lapatinib; first compound 2.53 µM,0.939
same,relative viability,Avagacestat + Lapatinib; first compound 8 µM,1.11
same,relative viability,Avagacestat + Pictilisib; first compound 0.08 µM,0.795
same,relative viability,Avagacestat + Pictilisib; first compound 0.253 µM,0.632
same,relative viability,Avagacestat + Pictilisib; first compound 0.8 µM,0.458
same,relative viability,Avagacestat + Pictilisib; first compound 2.53 µM,0.462
same,relative viability,Avagacestat + Pictilisib; first compound 8 µM,0.403
same,relative viability,Avagacestat + Crizotinib; first compound 0.08 µM,1.27
same,relative viability,Avagacestat + Crizotinib; first compound 0.253 µM,1.26
same,relative viability,Avagacestat + Crizotinib; first compound 0.8 µM,0.771
same,relative viability,Avagacestat + Crizotinib; first compound 2.53 µM,0.808
same,relative viability,Avagacestat + Crizotinib; first compound 8 µM,0.623
same,relative viability,Avagacestat + Linsitinib; first compound 0.08 µM,0.826
same,relative viability,Avagacestat + Linsitinib; first compound 0.253 µM,0.582
same,relative viability,Avagacestat + Linsitinib; first compound 0.8 µM,0.58
same,relative viability,Avagacestat + Linsitinib; first compound 2.53 µM,0.571
same,relative viability,Avagacestat + Linsitinib; first compound 8 µM,0.459
same,relative viability,Avagacestat + Alpelisib; first compound 0.08 µM,1.02
same,relative viability,Avagacestat + Alpelisib; first compound 0.253 µM,0.99
same,relative viability,Avagacestat + Alpelisib; first compound 0.8 µM,0.694
same,relative viability,Avagacestat + Alpelisib; first compound 2.53 µM,0.673
same,relative viability,Avagacestat + Alpelisib; first compound 8 µM,0.771
same,relative viability,Avagacestat + Phenformin; first compound 0.08 µM,0.276
same,relative viability,Avagacestat + Phenformin; first compound 0.253 µM,0.218
same,relative viability,Avagacestat + Phenformin; first compound 0.8 µM,0.181
same,relative viability,Avagacestat + Phenformin; first compound 2.53 µM,0.226
same,relative viability,Avagacestat + Phenformin; first compound 8 µM,0.538
same,relative viability,Avagacestat + Decitabine; first compound 0.08 µM,0.331
same,relative viability,Avagacestat + Decitabine; first compound 0.253 µM,0.254
same,relative viability,Avagacestat + Decitabine; first compound 0.8 µM,0.296
same,relative viability,Avagacestat + Decitabine; first compound 2.53 µM,0.31
same,relative viability,Avagacestat + Decitabine; first compound 8 µM,0.259
same,relative viability,Avagacestat + Olaparib; first compound 0.08 µM,0.465
same,relative viability,Avagacestat + Olaparib; first compound 0.253 µM,0.301
same,relative viability,Avagacestat + Olaparib; first compound 0.8 µM,0.622
same,relative viability,Avagacestat + Olaparib; first compound 2.53 µM,0.265
same,relative viability,Avagacestat + Olaparib; first compound 8 µM,0.34
IA-LM,relative viability,Avagacestat; 0.08 µM,1.83
same,relative viability,Avagacestat; 0.253 µM,1.62
same,relative viability,Avagacestat; 0.8 µM,1.44
same,relative viability,Avagacestat; 2.53 µM,1.51
same,relative viability,Avagacestat; 8 µM,1.26
same,relative viability,Avagacestat + Bortezomib; first compound 0.08 µM,1.39
same,relative viability,Avagacestat + Bortezomib; first compound 0.253 µM,1.28
same,relative viability,Avagacestat + Bortezomib; first compound 0.8 µM,0.823
same,relative viability,Avagacestat + Bortezomib; first compound 2.53 µM,0.855
same,relative viability,Avagacestat + Bortezomib; first compound 8 µM,1.25
same,relative viability,Avagacestat + Navitoclax; first compound 0.08 µM,1.25
same,relative viability,Avagacestat + Navitoclax; first compound 0.253 µM,1.3
same,relative viability,Avagacestat + Navitoclax; first compound 0.8 µM,1.34
same,relative viability,Avagacestat + Navitoclax; first compound 2.53 µM,1.21
same,relative viability,Avagacestat + Navitoclax; first compound 8 µM,1.18
same,relative viability,Avagacestat + Foretinib; first compound 0.08 µM,1.76
same,relative viability,Avagacestat + Foretinib; first compound 0.253 µM,1.68
same,relative viability,Avagacestat + Foretinib; first compound 0.8 µM,1.71
same,relative viability,Avagacestat + Foretinib; first compound 2.53 µM,1.37
same,relative viability,Avagacestat + Foretinib; first compound 8 µM,1.4
same,relative viability,Avagacestat + Lapatinib; first compound 0.08 µM,1.8
same,relative viability,Avagacestat + Lapatinib; first compound 0.253 µM,1.39
same,relative viability,Avagacestat + Lapatinib; first compound 0.8 µM,1.38
same,relative viability,Avagacestat + Lapatinib; first compound 2.53 µM,1
same,relative viability,Avagacestat + Lapatinib; first compound 8 µM,1.07
same,relative viability,Avagacestat + Pictilisib; first compound 0.08 µM,1.1
same,relative viability,Avagacestat + Pictilisib; first compound 0.253 µM,1.02
same,relative viability,Avagacestat + Pictilisib; first compound 0.8 µM,0.711
same,relative viability,Avagacestat + Pictilisib; first compound 2.53 µM,0.802
same,relative viability,Avagacestat + Pictilisib; first compound 8 µM,0.525
same,relative viability,Avagacestat + Crizotinib; first compound 0.08 µM,1.98
same,relative viability,Avagacestat + Crizotinib; first compound 0.253 µM,1.36
same,relative viability,Avagacestat + Crizotinib; first compound 0.8 µM,1.09
same,relative viability,Avagacestat + Crizotinib; first compound 2.53 µM,0.879
same,relative viability,Avagacestat + Crizotinib; first compound 8 µM,1.1
same,relative viability,Avagacestat + Linsitinib; first compound 0.08 µM,1.24
same,relative viability,Avagacestat + Linsitinib; first compound 0.253 µM,0.859
same,relative viability,Avagacestat + Linsitinib; first compound 0.8 µM,1.11
same,relative viability,Avagacestat + Linsitinib; first compound 2.53 µM,1.01
same,relative viability,Avagacestat + Linsitinib; first compound 8 µM,0.984
same,relative viability,Avagacestat + Alpelisib; first compound 0.08 µM,1.09
same,relative viability,Avagacestat + Alpelisib; first compound 0.253 µM,1.62
same,relative viability,Avagacestat + Alpelisib; first compound 0.8 µM,1.74
same,relative viability,Avagacestat + Alpelisib; first compound 2.53 µM,1.43
same,relative viability,Avagacestat + Alpelisib; first compound 8 µM,1.16
same,relative viability,Avagacestat + Vorinostat; first compound 0.08 µM,1.56
same,relative viability,Avagacestat + Vorinostat; first compound 0.253 µM,1.59
same,relative viability,Avagacestat + Vorinostat; first compound 0.8 µM,1.51
same,relative viability,Avagacestat + Vorinostat; first compound 2.53 µM,0.957
same,relative viability,Avagacestat + Vorinostat; first compound 8 µM,0.992
same,relative viability,Avagacestat + Olaparib; first compound 0.08 µM,1.33
same,relative viability,Avagacestat + Olaparib; first compound 0.253 µM,1.37
same,relative viability,Avagacestat + Olaparib; first compound 0.8 µM,1.15
same,relative viability,Avagacestat + Olaparib; first compound 2.53 µM,1.06
same,relative viability,Avagacestat + Olaparib; first compound 8 µM,1.05
